From patent US20240279265A1, “CRYSTAL FORMS OF GLUCOSAMINE DERIVATIVE, AND PREPARATION METHOD THEREFOR AND USE THEREOF” (RISEN (SUZHOU) PHARMA TECH CO., LTD., priority 2021, published 2024)

Key:
Type in all cases: physicochemical
Solubility test in water = settings: purified water, room temperature, stirred 2 hours
Procedure: The excess crystals were dissolved in an amount of purified water in a 4 ml vial at room temperature. The mass of an empty watch glass was recorded as m1.
The suspension was stirred for 2 hours and then filtered through a […] into an empty watch glass, the mass m2 at this point was recorded for this watch glass, and the remaining solid was used for XRPD analysis.
The watch glass containing the filtrate was dried in an oven at 40° C. After drying, the mass m3 was recorded and the solubility data of the substrate could be calculated. The masses of the watch glass as well as the amounts of solid and solution are listed in Table 6, and the experimental results are shown in Table 7 and FIG. 12.

[1] = Thermogravimetric analysis (TGA); settings: heated at 10° C./min under nitrogen
Procedure: TGA: Samples were analyzed using a TA Instruments TGA Discovery 550. The sample were placed in a tared aluminum tray and automatically weighed, and then the samples were brought to the specified temperatures at a rate of 10° C./min under the protection of nitrogen. In the present invention, the TGA graphs of the above three samples are illustrated in the form of overlay, as shown in FIG. 5.

[2] = Dynamic vapor sorption (DVS); settings: for DVS weight gain at an RH of 80%: RH 80%, 25±1° C.; for Mass change (%) - ref, Delay: desorption minus sorption
Procedure: DVS: Samples were analyzed using an Intrinsic DVS ([…] UK). The amount of test sample was about 20-30 mg. The temperature of the test chamber was controlled between 25±1° C., the relative humidity was increased from 0% to 90% and then decreased to 0% at a rate of 10%/h, and the quality data was recorded every 20 s.

[3] = Solubility in buffer of crystalline form I
From the text: The solubility of crystalline form I of the present invention was investigated at room temperature in buffers at pH 1.2, 4.5 and 6.8. The procedure was consistent with that of the solubility test in water. The masses of the watch glass as well as the amounts of solid and solution are listed in Table 8, and the experimental results are shown in Table 9.

[4] = Stability test (crystalline form by XRPD); settings: one week
Procedure: 10 mg of the solid was placed into a 2 ml glass vial and the vial was transferred to a stability chamber. The experimental conditions were 25° C./92.5% RH, 40° C./75% RH, 60° C., and light, respectively.

Row | Solubility in water (Solubility test in water) [mg/g] | TGA weight loss (wt %) [1] | DVS weight gain at an RH of 80% [2] [%] | Mass change (%) - ref, Desorption ([2]; Cycle 1, objective RH 0.0%) [%] | Mass change (%) - ref, Sorption ([2]; Cycle 1, objective RH 0.0%) [%] | Mass change (%) - ref, Desorption ([2]; Cycle 1, objective RH 10.0%) [%] | Mass change (%) - ref, Sorption ([2]; Cycle 1, objective RH 10.0%) [%] | Mass change (%) - ref, Delay ([2]; Cycle 1, objective RH 10.0%) [%] | Mass change (%) - ref, Desorption ([2]; Cycle 1, objective RH 20.0%) [%] | Mass change (%) - ref, Sorption ([2]; Cycle 1, objective RH 20.0%) [%] | Mass change (%) - ref, Delay ([2]; Cycle 1, objective RH 20.0%) [%] | Mass change (%) - ref, Desorption ([2]; Cycle 1, objective RH 30.0%) [%] | Mass change (%) - ref, Sorption ([2]; Cycle 1, objective RH 30.0%) [%] | Mass change (%) - ref, Delay ([2]; Cycle 1, objective RH 30.0%) [%] | Mass change (%) - ref, Desorption ([2]; Cycle 1, objective RH 40.0%) [%] | Mass change (%) - ref, Sorption ([2]; Cycle 1, objective RH 40.0%) [%] | Mass change (%) - ref, Delay ([2]; Cycle 1, objective RH 40.0%) [%] | Mass change (%) - ref, Desorption ([2]; Cycle 1, objective RH 50.0%) [%] | Mass change (%) - ref, Sorption ([2]; Cycle 1, objective RH 50.0%) [%] | Mass change (%) - ref, Delay ([2]; Cycle 1, objective RH 50.0%) [%] | also measured | SMILES
1 | 8.12 | 0.966 wt % | 2.440 |  |  |  |  |  |  |  |  |  |  |  |  |  |  |  |  |  |  | CCCC(=O)N[C@H]1C(O)O[C@H](COC(=O)CCC)[C@@H](OC(=O)CCC)[C@@H]1O (stereo partly drawn) [API, 2-N-4,6-di-O-tributyryl-D-glucosamine]
2 | 9.02 | 0.344 wt % | 1.037 | −0.022 | 0.001 | 0.082 | 0.092 | −0.010 | 0.160 | 0.175 | −0.015 | 0.270 | 0.276 | −0.006 | 0.409 | 0.417 | −0.007 | 0.498 | 0.502 | −0.003 | Solubility in buffer ([3]; buffer pH 1.2, room temperature): 4.08 mg/g; Solubility in buffer ([3]; buffer pH 4.5, room temperature): 6.58 mg/g; Solubility in buffer ([3]; buffer pH 6.8, room temperature): 10.02 mg/g; Whether the crystalline form is changed ([4]; 25° C., 92.5% RH): No; Whether the crystalline form is changed ([4]; 40° C., 75% RH): No; Whether the crystalline form is changed ([4]; 60° C.): No; Whether the crystalline form is changed ([4]; Light): No; Solubility in water (Solubility test in water; listed as crystalline form I): 9.08 mg/g; Mass change (%) - ref, Desorption ([2]; Cycle 1, objective RH 60.0%): 0.627%; Mass change (%) - ref, Sorption ([2]; Cycle 1, objective RH 60.0%): 0.626%; Mass change (%) - ref, Delay ([2]; Cycle 1, objective RH 60.0%): 0.001%; Mass change (%) - ref, Desorption ([2]; Cycle 1, objective RH 70.0%): 0.789%; Mass change (%) - ref, Sorption ([2]; Cycle 1, objective RH 70.0%): 0.800%; Mass change (%) - ref, Delay ([2]; Cycle 1, objective RH 70.0%): −0.011%; Mass change (%) - ref, Desorption ([2]; Cycle 1, objective RH 80.0%): 1.031%; Mass change (%) - ref, Sorption ([2]; Cycle 1, objective RH 80.0%): 1.037%; Mass change (%) - ref, Delay ([2]; Cycle 1, objective RH 80.0%): −0.006%; Mass change (%) - ref, Desorption ([2]; Cycle 1, objective RH 90.0%): 1.662%; Mass change (%) - ref, Sorption ([2]; Cycle 1, objective RH 90.0%): 1.662% | CCCC(=O)N[C@H]1C(O)O[C@H](COC(=O)CCC)[C@@H](OC(=O)CCC)[C@@H]1O (stereo partly drawn) [Crystalline Form I, 2-N-4,6-di-O-tributyryl-D-glucosamine]
3 | 9.08 | None | 0.869 | 0.023 | 0.000 | 0.552 | 0.086 | 0.466 | 0.659 | 0.165 | 0.494 | 0.777 | 0.257 | 0.520 | 0.913 | 0.324 | 0.590 | 0.968 | 0.368 | 0.600 | Solubility in water (Solubility test in water; listed as crystalline form II): 9.02 mg/g; Mass change (%) - ref, Desorption ([2]; Cycle 1, objective RH 60.0%): 1.080%; Mass change (%) - ref, Sorption ([2]; Cycle 1, objective RH 60.0%): 0.457%; Mass change (%) - ref, Delay ([2]; Cycle 1, objective RH 60.0%): 0.623% | CCCC(=O)N[C@H]1C(O)O[C@H](COC(=O)CCC)[C@@H](OC(=O)CCC)[C@@H]1O (stereo partly drawn) [Crystalline Form II, 2-N-4,6-di-O-tributyryl-D-glucosamine]
